Measurements reported in patent US5096924A, “Anticancer antibiotic MI43-37F11 substance” (501 Azidan Hojin Biseibutsu Kagaku Kenkyu Kai, priority 1989, dated 1992).

Test system: peritoneal macrophages
Experiment: Effect on phagocytosis of the peritoneal macrophages
Type: in vivo, CDF1 mice
Conditions: for Rate (%) of Increase in phagocytic action of peritoneal macrophages: 3 days and one day before harvest, control 100
Description: (4) Experiments for estimation of the effect of the antibiotic MI43-37F11 substance on phagocytosis of the peritoneal macrophages were conducted by the following procedure. Thus, 3 days and one day before the harvest of the peritoneal macrophages, MI43-37F11 substance was intraperitoneally administered to CDF1 mice (female, 8-weeks old, 3 mice) at a dosage of 50 mg/kg, 5 mg/kg or 0.5 mg/kg. One day after the administration of MI43-37F11 substance, the peritoneal macrophages were harvested from the peritoneal cavity of the mice of the treated group of mice and then inoculated into a culture medium present in a plastic dish (Falcone) at the cell density of 5×10^5 cells/m(, followed by incubation of the macrophages. The incubated medium containing the macrophages was then added with 7.5×10^6 cells/ml of heat-treated yeast cells, followed by further incubation for a time. The macrophages were then fixed by addition of methanol and stained by Giemsa staining method. The number of the yeast cells which received the phagocytosis by 400 macrophages was counted. The control group of mice (untreated) received only intraperitoneal injection of physiological saline in place of the administration of MI43-37F11 substance, before the harvest of the peritoneal macrophages was done. Assumed that the number of the yeast cells which had received the phagocytosis by 400 macrophages as harvested from the mice of the control group was amounting to 100, the rate of increase in the phagocytic action of the peritoneal macrophages as harvested from the treated group of mice was evaluated. In other words, the rate (%) of increase in the phagocytic action of the peritoneal macrophages of the mice of the treated group was calculated according to the following equation: [formula] where T means the mumber of yeast cells having received the phagocytosis by 400 macrophages which were harvested from the treated group of mice, and C means the number of yeast cells having received the phagocytosis by 400 macrophages which were harvested from the control group of mice (untreated).

## COc1cc(O)c2c(=O)oc(CO)cc2c1 [MI43-37F11 substance]
0.5 mg/kg i.p.
  Rate (%) of Increase in phagocytic action of peritoneal macrophages: 102%
5 mg/kg i.p.
  Rate (%) of Increase in phagocytic action of peritoneal macrophages: 80%
50 mg/kg i.p.
  Rate (%) of Increase in phagocytic action of peritoneal macrophages: 144%
Summary in words
  enhance the phagocytic action of the macrophages: effective
